Values joined by “and” are separate entries in the source; they are usually repeats but may differ in a detail not shown here. Equal entries are not always repeated.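 Protocol summary: plate cells (96-well), add compound at 5 concentrations, incubate 48 h, interpolate endpoints linearly. The concentration for 50% growth inhibition is given as GI50. TGI marks complete inhibition of growth.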
How the values were obtained:
Experiment in all cases: NCI-60 cell line screen, 48 h
SK-MEL-5 melanoma = test system: SK-MEL-5 melanoma
ACHN renal = test system: ACHN renal
K-562 leukemia = test system: K-562 leukemia
BT-549 breast = test system: BT-549 breast
RPMI-8226 leukemia = test system: RPMI-8226 leukemia
HCT-116 colon = test system: HCT-116 colon
U251 CNS = test system: U251 CNS
LOX IMVI melanoma = test system: LOX IMVI melanoma
OVCAR-4 ovarian = test system: OVCAR-4 ovarian
SF-295 CNS = test system: SF-295 CNS

| SMILES | TGI (SK-MEL-5 melanoma) | TGI (ACHN renal) [nM] | TGI (K-562 leukemia) [nM] | TGI (BT-549 breast) | TGI (RPMI-8226 leukemia) | TGI (HCT-116 colon) [nM] | TGI (U251 CNS) | TGI (LOX IMVI melanoma) | TGI (OVCAR-4 ovarian) | GI50 (SK-MEL-5 melanoma) [nM] | GI50 (ACHN renal) [nM] | GI50 (K-562 leukemia) [nM] | GI50 (BT-549 breast) [nM] | GI50 (SF-295 CNS) [nM] | TGI (SF-295 CNS) | GI50 (HCT-116 colon) [nM] | GI50 (U251 CNS) [nM] | GI50 (LOX IMVI melanoma) [nM] | GI50 (OVCAR-4 ovarian) [nM] | GI50 (RPMI-8226 leukemia) [nM] |
| --- | --- | --- | --- | --- | --- | --- | --- | --- | --- | --- | --- | --- | --- | --- | --- | --- | --- | --- | --- | --- |
| CC[C@@]1(O)C(=O)OCc2c1cc1n(c2=O)Cc2c-1nc1ccccc1c2/C=N\NC(=O)C(N)Cc1cnc[nH]1 (stereo partly specified) | 1030 nM | 1180 | > 100000 | > 100000 nM | 44000 nM | > 41400 | 5030 nM | 3370 nM | > 100000 nM | – | – | – | – | – | – | – | – | – | – | – |
| CCOC(=O)c1c(C)[nH]c(/C=C2\N=C(c3ccc[nH]3)C=C2OC)c1C | 69.8 nM | 1290 | 1530 | 1480 nM | – | – | 1590 nM | 16.8 nM | 2810 nM | 23.1 | 32.1 | 50.4 | 41 | 105 | 624 nM | < 10.7 | 52 | < 10 | 135 | – |
| O=C1C=C(N2CC2)C(=O)C=C1N1CC1 | 72 nM and 307 nM | 303 | 2940 | 159 nM and 1340 nM | 503 nM and 1870 nM | – | 284 nM and 1490 nM | 206 nM and 386 nM | 983 nM and 613 nM | 15.5 | – | 246 | 20.7 | 38 | 266 nM and 1300 nM | – | 23.3 | 29.8 | 185 | 45.6 |
| COC(=O)c1cc2c3c(cc(O)c2[nH]1)N(C(=O)C1Cc2cc(OC)c(OC)c(OC)c2N1)CC3CCl (stereo unspecified) | < 10 nM | – | – | < 10 nM | < 10 nM | – | 10.9 nM | 291 nM | 845 nM | < 10 | – | – | < 10 | < 10 | < 10 nM | – | < 10 | < 10 | < 10 | < 10 |
| COc1cc(/C=C2\CN(S(=O)(=O)c3ccc(C)cc3)C/C(=C\c3cc(CN4CCCCC4)c(O)c(OC)c3)C2=O)cc(CN2CCCCC2)c1O | 3470 nM | 2740 | – | 2770 nM | 5450 nM | – | – | – | – | 1810 | 1440 | – | 1380 | 2260 | 5150 nM | – | – | – | – | 2030 |
| COc1ccc(Cl)cc1NC(=O)c1c(NC(=O)C(F)(F)C(F)(F)F)sc2c1CCCCC2 | 585 nM | 7110 | > 100000 | 7230 nM | 3210 nM | 5670 | > 100000 nM | > 100000 nM | 5640 nM | 242 | 1760 | 663 | 2060 | 1030 | 3730 nM | 1300 | 1890 | 2620 | 1570 | 523 |
| Oc1ccc2ccccc2c1N=Nc1ccccn1 | 15600 nM | > 100000 | > 100000 | > 100000 nM | > 100000 nM | 2770 | > 100000 nM | 12400 nM | 3870 nM | 2750 | 423 | 600 | 3440 | 800 | 13500 nM | 277 | 563 | 356 | 408 | 1980 |
| COc1ccc(CCCC(=O)O)c(C)c1 | > 100000 nM | > 100000 | > 100000 | > 100000 nM | – | > 100000 | 60800 nM | > 100000 nM | > 100000 nM | – | – | – | – | – | > 100000 nM | – | – | – | – | – |
| COc1cc2cc(C(=O)N3CC(CCl)c4c3cc(N(C)C)c3ccccc43)[nH]c2c(OC)c1OC (stereo unspecified) | 24.1 nM | > 100000 | 47.7 | 5910 nM | 501 nM | > 100000 | 4660 nM | 1860 nM | 114 nM | – | – | – | – | – | 38.1 nM | – | – | – | – | – |
